Converted amounts (≈) assume the structure as drawn. Some results are limits rather than exact numbers.

A short description of data set [1]: in vitro. To be noted: rat, microsomes.
Description: Clearance in rat liver microsomes
For data set [2], the target named is Bromodomain-containing protein 4 (Homo sapiens, UniProt O60885).
Description: Inhibition of BRD4 bromodomain 1 (unknown origin) by TR-FRET assay
Data set [3] in a line: in vitro. The following applies: rat, hepatocytes.
Description: Hepatic clearance in rat hepatocytes
A short description of data set [4]: in vivo. The following applies: CD-1, mouse.
Description: Half life in CD-1 mouse at 1 mg/kg, iv or 5 mg/kg, po
Data set [5] in a line: in vitro. To be noted: dog, MDCK.
Description: Apparent permeability from apical to basolateral side in MDCK cells
The nature of data set [6]: in vitro. The following applies: human, microsomes.
Description: Clearance in human liver microsomes
A short description of data set [7]: in vitro. The following applies: mouse, hepatocytes.
Description: Hepatic clearance in mouse hepatocytes
Data set [8] can be described thus: in vivo. To be noted: CD-1, mouse, po, 5 mg/kg.
Data set [9] in a line: in vivo. To be noted: CD-1, mouse, iv, 1 mg/kg.
Description: Clearance in CD-1 mouse at 1 mg/kg, iv or 5 mg/kg, po
Another data set in a line: physchem. To be noted: buffer, pH 7.4.
A short description of data set [10]: in vitro. To be noted: mouse, microsomes.
Description: Clearance in mouse liver microsomes
The nature of data set [11]: in vitro. The following applies: human, plasma.
Description: Protein binding in human plasma
The nature of data set [12]: in vitro. To be noted: rat, plasma.
Description: Protein binding in rat plasma
A short description of data set [13]: in vitro. The following applies: mouse, plasma.
Description: Protein binding in mouse plasma
The nature of data set [14]: in vitro. To be noted: human, hepatocytes.
Description: Hepatic clearance in human hepatocytes
A short description of data set [15]: in vivo. The following applies: CD-1, mouse, iv, 1 mg/kg. The source holds these as a separate data set.
Description: Volume of distribution at steady state in CD-1 mouse at 1 mg/kg, iv or 5 mg/kg, po

Description for physchem: Kinetic solubility in PBS buffer at pH 7.4

As to `CC(=O)N1CCc2c(c(-c3cccc4cc(-c5cnn(C)c5)ncc34)nn2C2CCOCC2)C1`, the CLhep predicted in “in vitro [1]” is 18 mL/min/kg; in the data set “in vitro [3]” it was 14 mL/min/kg; in “in vitro [6]”, 8 to 8.3 mL/min/kg; in the data set “in vitro [7]”, less than 21 mL/min/kg; in the data set “in vitro [10]” it was 20 mL/min/kg; in the data set “in vitro [14]” it was less than 6 mL/min/kg. For the same molecule, the 50% inhibitory concentration (IC50) (in general, the concentration that gives 50% inhibition) in [2] worked out at 2.5 µM. Also, the half-life (in general, how long it takes for the measured level to halve) in the data set “in vivo [4]” is 1.6 h. Moreover, the Papp A→B (usually how fast a substance crosses the layer from the apical side) in “in vitro [5]” was 10 ×10⁻⁶ cm/s. Besides, the bioavailability (as a rule, the share of a dose that reaches the circulation, judged against a reference dose that is usually intravenous) in “in vivo [8]” is 67%. Also, the clearance (in general, a measure of how efficiently the substance is removed, as volume per time) in “in vivo [9]” came out at 11 mL/min/kg. Further, the solubility (kinetic) – broadly, solubility judged after dilution from a stock solution rather than from solid – in the data set “physchem” worked out at 92 µM (≈ 42 µg/mL). Moreover, the values for the fraction unbound in the data set “in vitro [11]”, in the data set “in vitro [12]” and in the data set “in vitro [13]” were 0.3, 0.24 and 0.15, respectively. Also, the volume of distribution (Vd) (commonly the apparent volume that relates the amount in the body to the concentration in plasma or blood) in “in vivo [15]” is 1.3 L/kg.
In the case of `CC(=O)N1CCc2c(c(-c3cncc4ccccc34)nn2C2CCOCC2)C1`, in [2], the IC50 was more than 20 µM.
Regarding `CC(=O)N1CCc2c(c(-c3cccc4cc(-c5cn(C)nc5C#N)ncc34)nn2C2CCOCC2)C1`, the CLhep predicted in the data set “in vitro [1]” is 45 mL/min/kg; in “in vitro [6]” it was 11 mL/min/kg; in the data set “in vitro [10]”, 32 mL/min/kg. Half-maximal inhibition in data set [2] (IC50) required 3.8 µM.
For the molecule `CC(=O)N1CCc2c(c(-c3cc(CO)cc4ccncc34)nn2C2CCOCC2)C1`, the IC50 in [2] was more than 20 µM.
`COc1ccc(-c2nn(C3CCOCC3)c3c2CN(C(C)=O)CC3)c2cnccc12` gave an IC50 in [2] of 11 µM.
As for `CC(=O)N1CCc2c(c(-c3cccc4c[nH]c(=O)cc34)nn2C2CCOCC2)C1`, the IC50 in data set [2] was more than 20 µM.

These data come from ChEMBL document CHEMBL4184171, “Design and synthesis of a biaryl series as inhibitors for the bromodomains of CBP/P300” (Bioorg Med Chem Lett, 2018).
